The text below walks through data of patent US5446032A, “Imidazo (4,5-C) pyridine derivatives as PAF antagonists” (British Biotech Pharmaceuticals Limited, priority 1991, dated 1995).

The target of the assay is T1, PAF receptor (human platelet plasma membrane) (Homo sapiens, UniProt P25105).
T1 construct: Platelet concentrates are obtained from a hospital blood bank; from tissue; host or cells: human platelets (concentrates from a hospital blood bank), lysed by freeze-thaw; membrane fraction
The assay is described as follows: Inhibition of [3H]-PAF receptor binding to human platelet plasma membrane. Conditions: [3H]-PAF 0.5 nM; 100 μg membrane fraction; 0° C.; 1 hour incubation; pH 7.0. The procedure:
Compounds of general formula I inhibit PAF-induced functions in both the cellular and tissue levels by changing the PAF binding to its specific receptor site. The ability of compounds of general formula I to inhibit the binding of PAF to its specific receptor binding site on human platelet plasma membranes was measured according to Example 24.
Inhibition of [^3 H]-PAF Receptor Binding
The inhibition of [^3 H]-PAF binding to human platelet plasma membrane by compounds of general formula I is determined by isotopic labelling and filtration techniques. Platelet concentrates are obtained from a hospital blood bank. These platelet concentrates (500-2500 ml.) are centrifuged at 800 rpm for 10 minutes in a SORVALL RC3B centrifuge to remove the red blood cells present. (The word SORVALL is a trade mark.) The supernatant is subsequently centrifuged at 3,000 rpm in a SORVALL RC3B centrifuge to pellet the platelets present. The platelet rich pellets are resuspended in a minimum volume of buffer (150 mM NaCl, 10 mM Tris, 2 mM EDTA, pH 7.5) and layered onto Ficoll-Paque gradients, 9 ml platelet concentrate to 2 ml Ficoll, and centrifuged at 1,900 rpm for 15 minutes in a SORVALL RT6000 centrifuge. This step removes the residual red blood cells and other nonspecific material such as lymphocytes from the preparation. The platelets which form a band between the plasma and the Ficoll are removed, resuspended in the above buffer and centrifuged at 3,000 rpm for 10 minutes in a SORVALL RT6000 centrifuge. The pelleted platelets are resuspended in buffer (10 mM Tris, 5 mM MgCl2, 2 mM EDTA, pH 7.0), snap freezed in liquid N2 and allowed to thaw slowly at room temperature in order to lyse the platelets. The latter step is repeated at least 3 times to ensure proper lysis. The lysed platelets are centrifuged at 3,000 rpm for 10 minutes in a SORVALL RT6000 centrifuge and resuspended in buffer. The latter step is repeated twice in order to remove any cytoplasmic proteins which may hydrolyse the platelet activating factor (PAF) receptor. The prepared platelet membranes may be stored at -70° C. After thawing the prepared membranes are centrifuged in a SORVALL RT6000 at 3,000 rpm for 10 minutes and resuspended in assay buffer.
The assay is conducted by preparing a series of Tris-buffered solutions of the selected antagonist of predetermined concentrations. Each of these solutions contained [^3 H]-PAF (0.5 nM; 1-O-[^3 H]octadecyl-2-acetyl-sn-glycero-3-phosphoryl choline with a specific activity of 132 Ci/mmol), […], a known amount of the test antagonist, and a sufficient amount of Tris-buffer solution (10 mM Tris, 5 mM MgC2, pH 7.0, 0.25% BSA) to make the final volume 1 ml. Incubation is initiated by the addition of 100 μg of the isolated membrane fraction to each of the above solutions at 0° C. Two control samples, one (C1) which contained all the ingredients described above except the antagonist and the other (C2) contains C1 plus a 1000-fold excess of unlabelled PAF, are also prepared and incubated simultaneously with the test samples. After 1 hour incubation, each solution is filtered rapidly under vacuo through a WHATMAN GF/C glass fibre filter in order to separate unbound PAF from bound PAF. (The word WHATMAN is a trade mark.) The residue in each case is rapidly washed 4 times with 5 ml cold (4° C.) Tris-buffer solution. Each washed residue is dried under vacuum on a sampling manifold and placed into vials containing 20 ml of OPTIPHASE MP scintillation fluid and the radioactivity counted in a liquid scintillation counter. (The word OPTIPHASE is a trade mark.) Defining the counts for total binding with antagonist from a test sample as "TBA"; the counts for total binding from the control sample C1 as "TB"; and the counts for nonspecific binding from the control sample C2 as "NSB"; the percent inhibition of each test antagonist can be determined by the following equation:
%Inhibition=[(TB-TBA)/SB]×100
where the specific binding SB=TB-NSB […]

T1 sequence (P25105 whole entry): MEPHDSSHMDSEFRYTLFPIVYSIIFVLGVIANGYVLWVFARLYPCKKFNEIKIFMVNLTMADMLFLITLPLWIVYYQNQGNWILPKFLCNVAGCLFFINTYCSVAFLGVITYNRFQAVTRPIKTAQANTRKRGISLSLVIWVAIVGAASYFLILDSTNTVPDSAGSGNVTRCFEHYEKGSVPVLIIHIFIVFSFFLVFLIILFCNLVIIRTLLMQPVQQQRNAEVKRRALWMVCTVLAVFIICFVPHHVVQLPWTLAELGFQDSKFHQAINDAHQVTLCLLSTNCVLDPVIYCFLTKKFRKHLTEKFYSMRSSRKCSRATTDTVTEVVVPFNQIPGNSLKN

As a reminder, the IC50 is the concentration that inhibits the measured activity by half. For `CCOC(=O)[C@H](CC(C)C)N(C)S(=O)(=O)c1ccc(Cn2ccc3nc(C)nc-3c2)c(Cl)c1` [Example 5, N-Methyl-N-4-(5H-2-methylimidazo[4,5-c]pyridylmethyl)-3-chlorophenylsulphonyl-L-leucine ethyl ester], the IC50 is 2 nM.
For `CCOC(=O)[C@H](CC(C)C)N(C)S(=O)(=O)c1ccc(Cn2ccc3ncnc-3c2)cc1` [Example 1, N-Methyl-N-4-(5H-imidazo[4,5-c]pyridylmethyl)phenylsulphonyl-L-leucine ethyl ester], the IC50 turned out to be 5 nM.
The same measure for `C=CCOC(=O)[C@H]([C@@H](C)CC)N(C)S(=O)(=O)c1ccc(Cn2ccc3nc(C)nc-3c2)cc1` [Example 4, N-Methyl-N-4-(5H-2-methylimidazo[4,5-c]pyridylmethyl)phenylsulphonyl-L-isoleucine allyl ester]: 10 nM; for `COC(C)C(C(C)C)N(C)S(=O)(=O)c1ccc(Cn2ccc3nc(C)nc-3c2)cc1` (stereo not shown) [Example 23, N-Methyl-N-4-(5H-2-methylimidazo[4,5-c]pyridylmethyl)phenylsulphonyl-2-methoxy-3-amino-4-methylpentane]: 15 nM; for `CCOC(=O)CN([C@@H](CC(C)C)C(=O)OCC)S(=O)(=O)c1ccc(Cn2ccc3nc(C)nc-3c2)cc1` [Example 6, N-Ethoxycarbonylmethyl-N-4-(5H-2-methylimidazo[4,5-c]pyridylmethyl)phenylsulphonyl-L-leucine ethyl ester]: 10 nM.
Turning to `Cc1nc2ccn(Cc3ccc(S(=O)(=O)N(C)[C@H](CO[Si](c4ccccc4)(c4ccccc4)C(C)(C)C)CC(C)C)cc3)cc-2n1` [Example 21, N-Methyl-N-4-(5H-2-methylimidazo[4,5-c]pyridylmethyl)phenylsulphonyl-L-leucinyl t-butyldiphenylsilyl ether], the IC50 amounted to 20 nM.
`CCOC(=O)[C@H](CC(C)C)N(CC(=O)OC(C)(C)C)S(=O)(=O)c1ccc(Cn2ccc3nc(C)nc-3c2)cc1` [Example 8, N-t-Butyloxycarbonylmethyl-N-4-(5H-2-methylimidazo[4,5-c]pyridylmethyl)phenylsulphonyl-L-leucine ethyl ester] registered an IC50 of 15 nM.
